Laboratory results: ChEMBL document CHEMBL5634130, “Exploring the structural-activity relationship of hexahydropyrazino[1,2-d]pyrido[3,2-b][1,4]oxazine derivatives as potent and orally-bioavailable PARP7 inhibitors” (Eur J Med Chem, 2023)
In brackets after ≈: the same amount, converted by molar mass.

Tests used:
MDA-MB-436 = assay: Antiproliferative activity against human MDA-MB-436 cells assessed as inhibition of cell viability incubated for 7 days by luminescence based assay; format: functional; conditions: MDA-MB-436, 168 h
[1] = Tmax in fasted Beagle dog at 10 mg/kg, po measured for 24 hrs by LC-MS analysis; format: ADME, organism-based, Canis lupus familiaris; conditions: in vivo
[2] = Thermodynamic solubility of compound at pH 7.4; format: physicochemical; conditions: buffer, read-out: Therm_solubility
[3] = Apparent permeability across apical to basolateral side in MDCKII-MDR1 cells incubated for 2 hrs by LC-MS analysis; format: ADME, cell-based, Canis lupus familiaris; conditions: dog, MDCK-MDR1
[4] = Efflux ratio of apparent permeability across basolateral to apical side over apical to basolateral side in MDCKII-MDR1 cells incubated for 2 hrs by LC-MS analysis; format: ADME, cell-based, Canis lupus familiaris; conditions: dog, MDCK-MDR1

O=C(CCOC[C@@H]1CCN1c1cn[nH]c(=O)c1C(F)(F)F)N1CCN2c3ncc(C(F)(F)F)cc3OC[C@@H]2C1 showed an IC50 (MDA-MB-436) of over 10 µM, a Tmax [1] of 24.6 min and a solubility thermodynamic [2] of 114 µg/mL (≈ 203 µM). It also gave a Papp A→B at 2 h [3] of 0.202 ×10⁻⁶ cm/s and an efflux ratio at 2 h [4] of 16.3.
